Measured values: ChEMBL document CHEMBL1137819, “New 9-thiocyanatopupukeanane sesquiterpenes from the nudibranch Phyllidia varicosa and its sponge-prey Axinyssa aculeata” (J Nat Prod, 2003)
“And” between values parts separate entries of the source, which are not always exact repeats. Equal values may be shown once. The source made the active and inactive calls. The calls are words filed in the database; no cut-off is given here.

How the values were obtained:
Bacillus subtilis = assay: Antimicrobial activity against Bacillus subtilis after 24 hrs; type: functional, organism-based
Candida albicans = assay: Antimicrobial activity against Candida albicans after 24 hrs; type: functional, organism-based
Artemia salina = assay: Toxicity against Artemia salina assessed as mortality after 24 hrs; type: organism-based; settings: in vivo

How did the Activity (Bacillus subtilis) turn out when CC(C)[C@@H]1C[C@]2(C)C[C@]3(C)C[C@H]1[C@H]2C[C@@H]3SC#N.CC(C)[C@@H]1C[C@]2(C)C[C@]3(C)C[C@H]1[C@H]2C[C@H]3SC#N was run?
Its Activity is “inactive”.

What about the Activity (Candida albicans) of the same compound?
Its Activity is “Active”.

What about the Activity (Artemia salina) of the same compound?
The Activity was 90% and 35%.

What about the LD50 (Artemia salina) of the same compound?
The LD50 was 5 ppm.
